# According to patent US12036228B2, “Treatment of seizure disorders” (Shackelford Pharma Inc., priority 2022, dated 2024):
# Columns and labels:
# [1] = system: seizures in human patient; experiment: Example 8 pediatric patient with Lennox-Gastaut; assay type: in vivo; settings: THC 8 mg BID (16 mg TDD) orally in combination with Epidiolex (CBD) 150 mg BID
# Description: The other pediatric patient was a patient, diagnosed with Lennox-Gastout in 2008, suffered from multiple seizure types and went through corpus callosotomy in January 2017 after failure of vagus nerve stimulation (VNS). […] The patient was first evaluated for cannabinoid treatment on Aug. 3, 2017, and was prescribed CBD with 0.3% THC 10 mg BID (Charlotte's Web). […] After discharge from the hospital, the patient's GTCs worsened and were no longer responsive to felbamate. […] This patient was 35.45 kg, so the CBD daily dose was 3.3 mg/kg (well below the therapeutic dosages for Epidiolex). However patient was still having frequent tonic, myoclonic, and GTC seizures per day. […] When the dose was 300 mg Epidiolex daily, the patient was 40.5 kg, so the CBD daily dose was 7.4 mg/kg (below the therapeutic dosages for Epidiolex for Lennox Gastaut Syndrome).
# [2] = system: GTC seizures in human patient; experiment: Example 4 human patient, idiopathic GTC seizures; assay type: in vivo
# Excerpt: A person's first evaluation for cannabinboid therapy was on Feb. 16, 2010. […] Initially in 2010, the patient was smoking cannabis in the day and taking a THC cannabis extract at night orally.
# [3] = smoking cannabis during the day and 12.5 mg of THC orally at bedtime
smiles,measurement,setting,value
"CCCCCc1cc(O)c2c(c1)OC(C)(C)[C@@H]1CCC(C)=C[C@@H]21 [THC, Delta-9-tetrahydrocannabinol]",effect on seizures,[1],further reduction in seizure frequency and duration
same,seizures after resuming regimen,[2]; cannabis smoking during the day and THC cannabis extract orally at night,the seizures stopped
same,seizure control,"[2]; inhaled and orally administered THC cannabis products, no anti-epileptic drugs",well controlled
same,seizure status,[2]; [3],had no seizures
same,seizure-free period,[2]; [3],4 years
